Data as given in PMC3429506, “Screening for Novel LRRK2 Inhibitors Using a High-Throughput TR-FRET Cellular Assay for LRRK2 Ser935 Phosphorylation” (PLoS ONE, 2012).

Experiments:
LRRK2-GFP = experiment: Western blot analysis of LRRK2-GFP Ser935 phosphorylation in BacMam transduced SH-SY5Y cells; format: cell-based, human; details: LRRK2-IN-1 3 µM 90 min, wild-type, G2019S, R1441C, Figure 3A
Method: Immunoblot analysis: BacMam LRRK2-GFP transduced U-2 OS or SH-SY5Y cells (10^7 cells) were left untreated or treated with 3 µM LRRK2-IN-I for 90 min. For lysate preparation, the cells were washed once with ice-cold PBS and lysed by addition of ice-cold lysis buffer (20 mM Tris-HCl, pH 7.4, 1% NP-40, 5 mM EDTA, 5 mM NaF, 150 mM NaCl, and 1∶100 of protease and phosphatase inhibitor cocktails). The lysate was cleared of debris by centrifugation. Equal amount of total protein was loaded onto each lane for SDS-PAGE (3–8% Tris Acetate). The proteins were transferred onto nitrocellulose membrane using the iBLOT® dry blotting system (Life Technologies) according to manufacturer’s protocol. The membranes were blocked and incubated with a primary antibody against LRRK2 (Cell Signaling Technologies), followed by incubation with alkaline phosphatase-conjugated secondary antibody (WesternBreeze® chromogenic Kit, Life Technologies). The blot was developed by using the chromogenic BCIP/NBT substrate (WesternBreeze® chromogenic Kit, Life Technologies). […] Two days post induction, cells were treated for 90 minutes in the presence of 20 µM of compound or DMSO vehicle control. […]

[1] = Cytotoxicity assay (resazurin-based cell viability); details: human
LRRK2 G2019S [2] = target: T1, LRRK2 G2019S (Homo sapiens, UniProt Q5S007, G2019S); experiment: TR-FRET cellular assay for LRRK2 Ser935 phosphorylation, SH-SY5Y cells, BacMam LRRK2-GFP G2019S (incl. Tocriscreen Mini library screen and follow-up); format: cell-based; parameters: This high-throughput assay utilizes cells expressing full-length human LRRK2 with a C-terminal GFP tag (LRRK2-GFP); host or cells: SH-SY5Y cells transduced with BacMam
T1 sequence (Q5S007 whole entry G2019S): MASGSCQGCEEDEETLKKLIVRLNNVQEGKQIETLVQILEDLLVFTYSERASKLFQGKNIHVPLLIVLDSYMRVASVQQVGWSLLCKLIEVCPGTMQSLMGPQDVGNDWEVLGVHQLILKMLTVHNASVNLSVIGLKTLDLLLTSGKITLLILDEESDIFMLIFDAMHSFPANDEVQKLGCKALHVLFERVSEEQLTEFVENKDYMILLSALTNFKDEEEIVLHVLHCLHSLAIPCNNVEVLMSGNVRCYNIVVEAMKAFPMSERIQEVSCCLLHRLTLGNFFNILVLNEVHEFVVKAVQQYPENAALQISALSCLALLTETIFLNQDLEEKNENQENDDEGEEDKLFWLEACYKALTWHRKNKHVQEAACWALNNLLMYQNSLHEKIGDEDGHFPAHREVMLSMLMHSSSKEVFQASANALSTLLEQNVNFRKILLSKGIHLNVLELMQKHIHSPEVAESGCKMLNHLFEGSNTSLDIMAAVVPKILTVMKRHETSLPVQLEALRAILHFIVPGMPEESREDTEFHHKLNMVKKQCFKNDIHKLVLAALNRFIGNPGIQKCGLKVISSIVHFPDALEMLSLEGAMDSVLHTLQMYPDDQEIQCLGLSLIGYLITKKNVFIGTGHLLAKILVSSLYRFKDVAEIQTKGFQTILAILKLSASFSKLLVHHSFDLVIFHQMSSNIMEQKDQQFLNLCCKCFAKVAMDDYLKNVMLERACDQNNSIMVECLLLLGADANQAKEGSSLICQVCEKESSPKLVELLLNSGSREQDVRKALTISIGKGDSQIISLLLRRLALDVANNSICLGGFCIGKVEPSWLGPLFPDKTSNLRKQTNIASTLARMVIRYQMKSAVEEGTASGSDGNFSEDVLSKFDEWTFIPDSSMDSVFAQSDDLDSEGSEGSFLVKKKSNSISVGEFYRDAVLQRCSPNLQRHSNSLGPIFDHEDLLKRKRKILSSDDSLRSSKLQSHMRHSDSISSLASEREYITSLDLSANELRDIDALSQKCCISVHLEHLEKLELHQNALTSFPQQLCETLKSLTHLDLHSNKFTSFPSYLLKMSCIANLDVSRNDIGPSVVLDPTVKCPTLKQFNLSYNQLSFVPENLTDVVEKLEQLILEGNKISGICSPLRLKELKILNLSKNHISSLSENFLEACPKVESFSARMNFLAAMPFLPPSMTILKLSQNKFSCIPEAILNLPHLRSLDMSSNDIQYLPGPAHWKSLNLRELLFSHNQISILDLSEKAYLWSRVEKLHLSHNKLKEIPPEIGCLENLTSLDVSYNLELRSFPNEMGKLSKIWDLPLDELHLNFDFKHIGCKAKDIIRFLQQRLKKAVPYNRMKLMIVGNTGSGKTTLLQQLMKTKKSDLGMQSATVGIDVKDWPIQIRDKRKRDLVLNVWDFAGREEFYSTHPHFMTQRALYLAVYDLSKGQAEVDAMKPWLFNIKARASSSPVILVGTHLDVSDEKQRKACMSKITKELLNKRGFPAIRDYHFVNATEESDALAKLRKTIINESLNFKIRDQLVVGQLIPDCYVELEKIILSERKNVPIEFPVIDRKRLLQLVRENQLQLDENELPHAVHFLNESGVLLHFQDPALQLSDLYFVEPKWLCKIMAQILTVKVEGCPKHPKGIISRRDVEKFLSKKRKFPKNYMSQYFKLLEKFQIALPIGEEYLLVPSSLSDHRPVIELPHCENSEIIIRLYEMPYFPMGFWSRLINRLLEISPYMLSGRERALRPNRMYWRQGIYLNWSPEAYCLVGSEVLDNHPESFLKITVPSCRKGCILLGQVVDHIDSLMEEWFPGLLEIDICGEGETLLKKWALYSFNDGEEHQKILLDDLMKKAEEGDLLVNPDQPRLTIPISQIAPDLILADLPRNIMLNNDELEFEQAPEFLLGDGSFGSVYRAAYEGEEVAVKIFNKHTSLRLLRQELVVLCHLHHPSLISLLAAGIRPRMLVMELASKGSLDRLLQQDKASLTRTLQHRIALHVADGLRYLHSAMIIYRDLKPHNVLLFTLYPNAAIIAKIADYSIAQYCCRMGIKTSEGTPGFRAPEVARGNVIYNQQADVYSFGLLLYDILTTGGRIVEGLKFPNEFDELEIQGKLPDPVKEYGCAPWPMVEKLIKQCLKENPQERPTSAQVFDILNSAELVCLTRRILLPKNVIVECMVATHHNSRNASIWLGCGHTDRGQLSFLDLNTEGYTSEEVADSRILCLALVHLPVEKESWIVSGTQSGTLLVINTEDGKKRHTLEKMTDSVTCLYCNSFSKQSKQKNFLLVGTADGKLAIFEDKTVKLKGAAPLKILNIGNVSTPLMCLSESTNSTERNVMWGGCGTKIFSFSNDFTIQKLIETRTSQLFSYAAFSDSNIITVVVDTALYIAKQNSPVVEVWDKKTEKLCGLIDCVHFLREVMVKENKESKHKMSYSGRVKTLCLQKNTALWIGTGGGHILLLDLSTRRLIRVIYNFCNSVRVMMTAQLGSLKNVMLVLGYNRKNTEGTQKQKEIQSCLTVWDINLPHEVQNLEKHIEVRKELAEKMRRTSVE

LRRK2 G2019S [3] = target: T1, LRRK2 G2019S; experiment: TR-FRET cellular assay for LRRK2 Ser935 phosphorylation, HEK293T cells, BacMam LRRK2-GFP G2019S; parameters: This high-throughput assay utilizes cells expressing full-length human LRRK2 with a C-terminal GFP tag (LRRK2-GFP); host or cells: HEK293T cells transduced with BacMam; details: +/- SD, three independent experiments, * = partial inhibition, read-out: IC50, TR-FRET cell-based assay for Ser935 phosphorylation of LRRK2
Method: (§1) U-2 OS cells are maintained in growth medium (McCoy’s 5A supplemented with 10% dialyzed FBS (dFBS), 10 mM HEPES, 0.1 mM NEAA, 1 mM Sodium Pyruvate, and 100 U/mL Penicillin/100 µg/mL Streptomycin). HEK293T cells are maintained in DMEM with 10% dFBS, 10 mM HEPES, 0.1 mM NEAA and 100 U/mL Penicillin/100 µg/mL Streptomycin. SH-SY5Y cells are maintained in DMEM/F-12 medium supplemented with 10% dFBS and 100 U/mL Penicillin/100 µg/mL Streptomycin. […] GIBCO® human neural stem cells (hNSCs) were propagated as an adherent culture in StemPro® NSC SFM according to the manufacturer’s recommended protocol (Life Technologies). For BacMam transduction of U-2 OS and HEK293T, cells were harvested, mixed with various amounts of BacMam LRRK2-GFP reagent (v/v) and plated onto 6-well plates. […] Cells were assayed in 384-well format (∼20,000 cells/well) 48 hours post-transduction as above.
(§2) Transduced cells in the 384-well assay plate were incubated with indicated inhibitors (5X, 5 µL/well) for 60 to 90 minutes. During this time, 6 X lysis buffer (Life Technologies) was supplemented with 30 nM Tb-labeled anti-LRRK2 pSer935 antibody and both protease and phosphatase inhibitor cocktails (Sigma). The complete 6 X lysis buffer was added to each well (5 µL/well) and the plates were incubated at room temperature in the dark for 2 hours. […] A sigmoidal dose-response equation with varying slope was used to fit the data and generate IC50 values. Z′-factor values were calculated as: Z′-factor = 1 - [(3 × stdevno virus +3 × stdevmaxvirus)/(avgmaxvirus – avgno-virus)]. The IC50 values reported in Table 1 are the averaged numbers from three independent experiments.

LRRK2 G2019S [4] = target: T1, LRRK2 G2019S; experiment: TR-FRET cellular assay for LRRK2 Ser935 phosphorylation, U-2 OS cells, BacMam LRRK2-GFP G2019S; format: cell-based; parameters: This high-throughput assay utilizes cells expressing full-length human LRRK2 with a C-terminal GFP tag (LRRK2-GFP); host or cells: U-2 OS, SH-SY5Y, HEK293T cells or human neural stem cells transduced with BacMam
Method: as §1, §2

COc1cc(C(=O)N2CCC(N3CCN(C)CC3)CC2)ccc1Nc1ncc2c(n1)N(C)c1ccccc1C(=O)N2C [LRRK2-IN-1]
Ser935 phosphorylation by Western blot (LRRK2-GFP): significantly reduced
IC50 [1]: > 20000 nM
IC50 (LRRK2 G2019S [2]; SH-SY5Y, 25% BacMam G2019S, 90 min, Figure 3C, read-out: IC50, inhibition of TR-FRET signal (Ser935 phosphorylation)): 40 nM
IC50 (LRRK2 G2019S [2]; SH-SY5Y, G2019S, +/- SD, three independent experiments, * = partial inhibition, read-out: IC50, TR-FRET cell-based assay for Ser935 phosphorylation of LRRK2): 60 nM
inhibition at 10 µM (LRRK2 G2019S [2]; SH-SY5Y, LRRK2-IN-1 positive control used at 10 µM, SH-SY5Y G2019S, read-out: %Inhibition Initial screen (positive control)): 100%
IC50 (LRRK2 G2019S [2]; cryopreserved pretransduced SH-SY5Y cells, 25% BacMam G2019S, 90 min, Figure S3, read-out: IC50 using cryopreserved cells): ~40 nM
IC50 (LRRK2 G2019S [2]; dose-response follow-up, SH-SY5Y G2019S, three independent experiments, read-out: Cellular TR-FRET Assay IC50 +/-SD): 70 nM
IC50 (LRRK2 G2019S [3]): 60 nM
IC50 (LRRK2 G2019S [4]; 20% BacMam G2019S, 90 min, Figure 2B, read-out: IC50, inhibition of TR-FRET signal (Ser935 phosphorylation)): 30 nM
IC50 (LRRK2 G2019S [4]; G2019S, +/- SD, three independent experiments, * = partial inhibition, read-out: IC50, TR-FRET cell-based assay for Ser935 phosphorylation of LRRK2): 50 nM
